Laboratory results taken from ChEMBL document CHEMBL5104130, “Synthesis of a tricyclic hexapeptide -via two consecutive ruthenium-catalyzed macrocyclization steps- with a constrained topology to mimic vancomycin's binding properties toward D-Ala-D-Ala dipeptide” (2022).
Converted amounts (≈) assume the structure as drawn.

System: Staphylococcus aureus
Experiment: Antibacterial activity against vancomycin-sensitive Staphylococcus aureus ATCC 49320 assessed as inhibition of bacterial growth incubated for 24 hrs
Type: functional

MIC: 37.5 µg/mL (≈ 40.8 µM)
Structure (SMILES): CN[C@H](CC(C)C)C(=O)N[C@@H]1CCCCn2nncc2-c2cc3cc(c2OC)-c2cnnn2CCCC[C@@H]2NC(=O)[C@@H](C/C=C/Cc4ccccc4NC2=O)NC(=O)[C@@H]3NC(=O)[C@H](C)NC1=O
